In ChEMBL document CHEMBL4477224, “Antidiabetic effect, antioxidant activity, and toxicity of 3',4'-Di-O-acetyl-cis-khellactone in Streptozotocin-induced diabetic rats” (Bioorg Med Chem Lett, 2016):
Activity calls are given as the source filed them. The rule behind the calls is not given here.

How the values were obtained:
[1] = Mutagenicity in Salmonella typhimurium TA98 assessed as mutagenic index at 0.19 uM/plate after 48 hrs in absence of S9 fraction by Ames test relative to control; format: toxicity; details: salmonella enterica subsp. enterica serovar typhimurium, s9, 48 h
[2] = Mutagenicity in Salmonella typhimurium TA98 assessed as mutagenic index at 0.005 uM/plate after 48 hrs in presence of S9 fraction by Ames test relative to control; format: toxicity, subcellular; details: salmonella enterica subsp. enterica serovar typhimurium, s9, 48 h
[3] = Mutagenicity in Salmonella typhimurium TA100 assessed as mutagenic index at 0.005 uM/plate after 48 hrs in presence of S9 fraction by Ames test relative to control; format: toxicity, subcellular; details: salmonella enterica subsp. enterica serovar typhimurium, s9, 48 h
[4] = Mutagenicity in Salmonella typhimurium TA102 assessed as mutagenic index at 0.005 uM/plate after 48 hrs in presence of S9 fraction by Ames test relative to control; format: toxicity, subcellular; details: salmonella enterica subsp. enterica serovar typhimurium, s9, 48 h
[5] = Toxicity in DBA/2J mouse assessed as mortality; details: in vivo
Rattus norvegicus [6] = experiment: Antidiabetic activity in STZ-induced diabetic Wistar rat assessed as body weight at 2.5 mg/kg, po administered on day 7 post STZ challenge measured immediately post dosage (reference value: 330.7 +/- 9.2 g); format: functional
Rattus norvegicus [7] = experiment: Antidiabetic activity in STZ-induced diabetic Wistar rat assessed as body weight at 2.5 mg/kg, po administered for 15 days post STZ challenge measured on day 21 (reference value: 330.7 +/- 9.2 g); format: functional
Rattus norvegicus [8] = experiment: Antidiabetic activity in STZ-induced diabetic Wistar rat assessed as change in fasting blood glucose level at 2.5 mg/kg, po administered on day 7 post STZ challenge measured immediately post dosage by glucometry (reference value: 63.75 +/- 7.3 mg/dl); format: functional
Rattus norvegicus [9] = experiment: Antidiabetic activity in STZ-induced diabetic Wistar rat assessed as change in fasting blood glucose level at 2.5 mg/kg, po administered for 7 days post STZ challenge measured on day 14 by glucometry (reference value: 63.75 +/- 7.3 mg/dl); format: functional
Rattus norvegicus [10] = experiment: Antidiabetic activity in STZ-induced diabetic Wistar rat assessed as decrease in blood glucose level at 2.5 mg/kg, po administered for 15 days post STZ challenge measured on day 21 by glucometry relative to control; format: functional; parameters: scale not given: the % may be the effect or the level left
Rattus norvegicus [11] = experiment: Antidiabetic activity in STZ-induced diabetic Wistar rat blood assessed as creatinine level at 2.5 mg/kg, po administered for 15 days (reference value: 0.56 +/- 0.03 mg/dl); format: functional
Rattus norvegicus [12] = experiment: Antidiabetic activity in STZ-induced diabetic Wistar rat blood assessed as urea level at 2.5 mg/kg, po administered for 15 days (reference value: 62.98 +/- 6.21 mg/dl); format: functional
Rattus norvegicus [13] = experiment: Antidiabetic activity in STZ-induced diabetic Wistar rat blood assessed as cholesterol level at 2.5 mg/kg, po administered for 15 days (reference value: 80.09 +/- 9.35 mg/dl); format: functional
Rattus norvegicus [14] = experiment: Antidiabetic activity in STZ-induced diabetic Wistar rat blood assessed as HDL level at 2.5 mg/kg, po administered for 15 days (reference value: 36.31 +/- 0.51 mg/dl); format: functional
Rattus norvegicus [15] = experiment: Antidiabetic activity in STZ-induced diabetic Wistar rat blood assessed as LDL level at 2.5 mg/kg, po administered for 15 days (reference value: 23.11 +/- 9.82 mg/dl); format: functional
Rattus norvegicus [16] = experiment: Antioxidant activity in STZ-induced diabetic Wistar rat liver assessed as catalase level measured as H2O2 consumption per mg of protein at 2.5 mg/kg, po administered for 15 days (reference value: 68.9 +/- 11.1 microM/min); format: functional
Rattus norvegicus [17] = experiment: Antioxidant activity in STZ-induced diabetic Wistar rat liver assessed as glutathione peroxidase level measured as NADPH consumption per mg of protein at 2.5 mg/kg, po administered for 15 days (reference value: 10 +/- 0.6 microM/min); format: functional
Rattus norvegicus [18] = experiment: Antioxidant activity in STZ-induced diabetic Wistar rat liver assessed as SOD level measured per mg of protein at 2.5 mg/kg, po administered for 15 days by NBT reduction test (reference value: 0.22 +/- 0.06 microM/min); format: functional
Rattus norvegicus [19] = experiment: Antidiabetic activity in STZ-induced diabetic Wistar rat liver assessed as effect on central vein architecture at 2.5 mg/kg, po administered for 15 days by hematoxylin/eosin staining based microscopy; format: functional, organism-based
Rattus norvegicus [20] = experiment: Antidiabetic activity in STZ-induced diabetic Wistar rat assessed as effect on hepatocytes surrounding central vein architecture at 2.5 mg/kg, po administered for 15 days by hematoxylin/eosin staining based microscopy; format: functional, organism-based
Rattus norvegicus [21] = experiment: Antidiabetic activity in STZ-induced diabetic Wistar rat assessed as increase in body weight at 2.5 mg/kg, po administered for 15 days post STZ challenge measured on day 21; format: functional
Rattus norvegicus [22] = experiment: Antidiabetic activity in STZ-induced diabetic Wistar rat assessed as change in fasting blood glucose level at 2.5 mg/kg, po administered for 15 days post STZ challenge measured on day 21 by glucometry (reference value: 63.75 +/- 7.3 mg/dl); format: functional
Rattus norvegicus [23] = experiment: Antidiabetic activity in STZ-induced diabetic Wistar rat assessed as increase in fasting blood glucose level at 2.5 mg/kg, po administered for 15 days post STZ challenge measured on day 21 by glucometry; format: functional
Rattus norvegicus [24] = experiment: Antidiabetic activity in STZ-induced diabetic albino Wistar rat assessed as increase in body weight at 100 mg/kg, po administered for 45 days relative to control; format: functional

For `CC1=NN(c2ccc([N+](=O)[O-])cc2)C(=O)C1[N+](=O)[O-]` (centres undefined), the Ratio [1] was 27.3.
With `Nc1ccc2cc3ccccc3cc2c1` [2-AMINOANTHRACENE] the Ratio [2] was 54.1, the Ratio [3] was 19.1 and the Ratio [4] was 3.5.
In the case of `O=c1ccc2ccccc2o1` [COUMARIN], the LD50 [5] is reported as greater than 700 mg/kg.
For `COc1ccc(Cl)cc1C(=O)NCCc1ccc(S(=O)(=O)NC(=O)NC2CCCCC2)cc1` [GLYBURIDE], the Activity (Rattus norvegicus [6]) was 341.4 g, the Activity (Rattus norvegicus [7]) was 385.5 g and the Activity (Rattus norvegicus [8]) was 211.7 mg/dL. The Activity (Rattus norvegicus [9]) was 282.8 mg/dL, the Activity (Rattus norvegicus [10]) was 56.6% and the Activity (Rattus norvegicus [11]) was 0.62 mg/dL. It also gave an Activity (Rattus norvegicus [12]) of 58.43 mg/dL, an Activity (Rattus norvegicus [13]) of 70.64 mg/dL and an Activity (Rattus norvegicus [14]) of 26.6 mg/dL. It also gave an Activity (Rattus norvegicus [15]) of 21.71 mg/dL, an Activity (Rattus norvegicus [16]) of 93.2 µM/min and an Activity (Rattus norvegicus [17]) of 48.75 µM/min. The Activity (Rattus norvegicus [18]) was 0.55 U/min, the Activity (Rattus norvegicus [19]) was “Active” and the Activity (Rattus norvegicus [20]) was “Active”. The Activity (Rattus norvegicus [21]) was 54.8 g, the Activity (Rattus norvegicus [22]) was 142 mg/dL and the Activity (Rattus norvegicus [23]) was 78.25 mg/dL.
`C[C@@H]1O[C@@H](OC[C@H]2O[C@@H](Oc3c(-c4ccc(O)c(O)c4)oc4cc(O)cc(O)c4c3=O)[C@H](O)[C@@H](O)[C@@H]2O)[C@H](O)[C@H](O)[C@H]1O` [RUTIN] gave an Activity (Rattus norvegicus [24]) of 12.1%.
